According to ChEMBL document CHEMBL1201862, “PubChem BioAssay data set” (2004):
“And” between values parts separate entries of the source, which are not always exact repeats. Equal values may be shown once. The source made the active and inactive calls.

Experiments:
Caspase-6 = Caspase-6 (Homo sapiens, UniProt P55212); assay: inhibition of CASP6 peptide cleavage – biochemical, VEID-R110 fluorescence, cherry-pick, dose response (AID 720632)
HEK293 [1] = assay: cells; format: functional, cell-based; details: Homo sapiens
[2] = blockers of HIV-1 envelope-mediated cell-cell fusion – cherry-pick, dose response (AID 652057); format: functional, cell-based
[3] = off-target signal loss in HeLa-CEM21 co-culture – HeLa F-luc CTL cells, cherry-picked, counter-screen for HIV-1 Env fusion inhibitor project, dose response (AID 652040); format: functional, cell-based;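 further: potency for signal decrease marking cytotoxic or nonspecific inhibition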
HEK293 [4] = assay: cells; format: functional, cell-based; details: Homo sapiens; remark: listed apart in the source
HEK293 [5] = assay: cells; format: functional, cell-based; details: Homo sapiens; remark: listed apart in the source
HEK293 [6] = assay: inhibition of NOD1-driven NF-kB reporter – cell-based, luminescence, uHTS, primary screen (AID 1578); format: functional; details: Homo sapiens
HEK293 [7] = assay: NOD2 signaling inhibitors in MDP-stimulated cells, cell-based, uHTS, luminescence (AID 2001); format: functional; details: Homo sapiens
[8] = inhibition of Env-driven cell fusion – HIV entry, plate reader, dry powder, dose response (AID 687023); format: functional, cell-based
Estrogen receptor = biological target: T1, Estrogen receptor (Homo sapiens, UniProt P03372);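 further: potency for inhibiting coactivator peptide recruitment to the receptor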
T1 sequence (P03372 whole entry): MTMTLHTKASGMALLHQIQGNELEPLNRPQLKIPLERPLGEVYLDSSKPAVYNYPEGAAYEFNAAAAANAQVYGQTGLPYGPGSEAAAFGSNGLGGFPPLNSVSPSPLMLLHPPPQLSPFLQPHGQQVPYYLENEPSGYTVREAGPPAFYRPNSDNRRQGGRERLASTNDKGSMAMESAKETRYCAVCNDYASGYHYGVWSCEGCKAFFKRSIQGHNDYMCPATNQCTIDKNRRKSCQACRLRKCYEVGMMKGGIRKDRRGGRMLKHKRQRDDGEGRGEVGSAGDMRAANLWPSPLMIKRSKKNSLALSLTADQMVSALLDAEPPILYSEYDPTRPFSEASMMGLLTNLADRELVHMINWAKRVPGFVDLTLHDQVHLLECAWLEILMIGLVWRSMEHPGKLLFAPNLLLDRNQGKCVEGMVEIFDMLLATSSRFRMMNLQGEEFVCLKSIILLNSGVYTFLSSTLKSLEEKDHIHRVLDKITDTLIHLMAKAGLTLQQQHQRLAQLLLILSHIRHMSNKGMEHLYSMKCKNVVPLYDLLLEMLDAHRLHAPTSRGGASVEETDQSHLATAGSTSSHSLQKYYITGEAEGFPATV

[9] = biological target: Nucleotide-binding oligomerization domain-containing protein 2 (Homo sapiens, UniProt Q9HC29); assay: inhibition of NOD2-driven NF-kB reporter – cell-based, luminescence, uHTS, HEK293 (AID 1566); format: functional
Chain of Nucleotide-binding oligomerization domain-containing protein 2 (Q9HC29 whole entry, the tested form may be a part): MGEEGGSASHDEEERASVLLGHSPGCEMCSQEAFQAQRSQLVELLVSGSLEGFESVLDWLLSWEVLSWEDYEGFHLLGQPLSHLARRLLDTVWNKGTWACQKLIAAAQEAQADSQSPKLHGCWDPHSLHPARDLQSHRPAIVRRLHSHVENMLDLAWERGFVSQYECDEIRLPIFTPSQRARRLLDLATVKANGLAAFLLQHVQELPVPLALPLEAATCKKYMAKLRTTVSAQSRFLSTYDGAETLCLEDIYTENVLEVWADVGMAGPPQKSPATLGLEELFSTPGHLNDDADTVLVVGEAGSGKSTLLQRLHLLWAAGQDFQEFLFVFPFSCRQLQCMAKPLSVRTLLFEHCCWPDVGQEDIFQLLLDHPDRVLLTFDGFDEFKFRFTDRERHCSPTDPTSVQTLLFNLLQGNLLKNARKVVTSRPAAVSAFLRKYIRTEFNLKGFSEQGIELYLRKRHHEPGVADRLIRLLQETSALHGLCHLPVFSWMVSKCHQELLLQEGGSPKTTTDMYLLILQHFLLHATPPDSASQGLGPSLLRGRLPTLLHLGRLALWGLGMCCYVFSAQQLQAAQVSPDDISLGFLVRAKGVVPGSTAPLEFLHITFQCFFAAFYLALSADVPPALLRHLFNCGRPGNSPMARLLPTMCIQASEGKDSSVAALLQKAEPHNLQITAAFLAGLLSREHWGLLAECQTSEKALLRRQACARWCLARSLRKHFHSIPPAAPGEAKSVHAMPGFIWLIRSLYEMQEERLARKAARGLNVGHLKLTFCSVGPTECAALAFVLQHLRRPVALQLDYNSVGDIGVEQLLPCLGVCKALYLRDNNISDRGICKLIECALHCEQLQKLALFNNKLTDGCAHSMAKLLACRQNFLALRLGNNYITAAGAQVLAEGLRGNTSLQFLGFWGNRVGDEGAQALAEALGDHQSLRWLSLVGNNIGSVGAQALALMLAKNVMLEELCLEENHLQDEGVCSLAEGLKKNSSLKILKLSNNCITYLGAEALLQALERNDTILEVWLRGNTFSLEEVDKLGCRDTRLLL

[10] = HIV-1 AD8 envelope cell-cell fusion blockers – cherry-pick, dose response (AID 652062); format: functional, cell-based;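 further: luciferase signal from cell-cell fusion driven by HIV-1 clade B AD8 Env; potency is for inhibitors of fusion seen as a drop in luminescence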
[11] = viability loss in CEM21 cells – cell-based, plate reader, dry powder, cytotoxicity control, dose response (AID 687026); format: functional
[12] = blockers of HIV-1 ZM109 envelope-driven cell-cell fusion – HeLa effector, CEM target cells, luciferase, cherry-pick, dose response (AID 652058); format: functional, cell-based;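 further: luciferase signal from HIV-1 Env mediated cell-cell fusion of effector and target cells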
[13] = biological target: NAD-dependent protein deacylase sirtuin-5, mitochondrial (Homo sapiens, UniProt Q9NXA8); assay: sirtuin-5 deacylation blockers, concentration series – biochemical, fluorescence imaging, cherry-pick, set 5, dose response (AID 720591);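 further: desuccinylation of succinyl peptide AMC substrate read as fluorescence after trypsin release; potency of inhibitors that lower fluorescence and may act on trypsin instead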
Chain of NAD-dependent protein deacylase sirtuin-5, mitochondrial (Q9NXA8 whole entry): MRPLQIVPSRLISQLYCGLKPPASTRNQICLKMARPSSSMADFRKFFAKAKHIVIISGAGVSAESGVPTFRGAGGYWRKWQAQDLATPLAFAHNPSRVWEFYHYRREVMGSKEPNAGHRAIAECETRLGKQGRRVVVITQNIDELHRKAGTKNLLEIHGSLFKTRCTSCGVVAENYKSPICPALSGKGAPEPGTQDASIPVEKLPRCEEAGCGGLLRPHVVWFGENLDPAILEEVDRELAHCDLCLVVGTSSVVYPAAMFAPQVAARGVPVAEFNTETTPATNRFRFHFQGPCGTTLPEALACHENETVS

[14] = HEK-293T viability loss after treatment – luminescence, T-cell screen hits, cytotoxicity control for TCR NF-kB inhibitor project, dose response (AID 489026); format: functional, cell-based;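 further: cells exposed to compound about 14 hours before the viability readout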
[15] = toxicity toward HEK293 cells – cell-based, dry powder samples, cytotoxicity control, dose response (AID 720567); format: functional
[16] = African trypanosome bloodstream form growth inhibition – STIB900 strain, plate reader, cherry pick, dose response (AID 651893); format: functional, cell-based, Trypanosoma brucei rhodesiense; details: Trypanosoma brucei
[17] = anti-trypanosomal activity in BESM host cells – imaging, CA-I/72 strain, bovine embryo skeletal muscle, dry powder, dose response (AID 651885); format: functional, cell-based
[18] = Trypanosoma cruzi replication inhibitors in host cells – cell-based, plate reader, dry powder samples, dose response (AID 651845); format: functional
[19] = Inhibition of T. cruzi Tulahuen strain amastigotes in L-6 muscle cells Measured in Cell-Based and Microorganism Combination System Using Plate Reader - 2138-03_Inhibitor_Dose_CherryPick_Activity.; format: functional; details: Rattus norvegicus, L6
[20] = L6 myocyte viability loss – cell-based, plate reader, cherry-pick, cytotoxicity control, dose response (AID 651896); format: functional
[21] = antileishmanial activity on axenic amastigotes – plate reader, cherry pick, dose response (AID 651891); format: functional, cell-based; details: Leishmania donovani
[22] = T. cruzi growth inhibition in host cells, dose response, cell-based, plate reader, dry powder, set 2 (AID 652275); format: functional
[23] = Inhibition of Plasmodium falciparum NF54 Measured in Cell-Based System Using Plate Reader - 2138-11_Inhibitor_Dose_CherryPick_Activity.; format: functional
[24] = intracellular Trypanosoma cruzi inhibitors in host cells – cell-based, plate reader, cherry-pick samples, set 3, dose response (AID 651818); format: functional;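 further: compounds incubated with infected cells for about four days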
Paired box protein Pax-8 = Paired box protein Pax-8 (Homo sapiens, UniProt Q06710); assay: PAX8 transcriptional activity inhibition in RMG-I – RMG-I cells, luciferase, cherry-pick, dose response (AID 687027); format: functional, cell-based;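 further: luciferase reporter driven by Pax8 target thyroperoxidase promoter measured by SteadyGlo luminescence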
Chain of Paired box protein Pax-8 (Q06710 whole entry): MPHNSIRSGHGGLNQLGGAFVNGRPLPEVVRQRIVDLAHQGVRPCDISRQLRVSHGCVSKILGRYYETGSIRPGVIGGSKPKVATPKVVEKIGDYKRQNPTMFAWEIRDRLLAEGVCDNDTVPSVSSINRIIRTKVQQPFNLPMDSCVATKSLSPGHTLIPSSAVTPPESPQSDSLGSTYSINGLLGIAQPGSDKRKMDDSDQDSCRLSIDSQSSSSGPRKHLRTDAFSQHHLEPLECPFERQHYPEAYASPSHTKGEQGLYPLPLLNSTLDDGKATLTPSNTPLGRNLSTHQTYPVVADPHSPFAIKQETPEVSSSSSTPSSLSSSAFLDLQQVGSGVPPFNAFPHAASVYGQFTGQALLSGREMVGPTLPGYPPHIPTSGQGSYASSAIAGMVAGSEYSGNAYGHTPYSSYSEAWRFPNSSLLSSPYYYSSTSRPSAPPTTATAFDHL

[25] = OVCAR8 cell viability loss – plate reader, dry powder samples, PAX8 project, dose response (AID 743197); format: functional, cell-based; details: OVCAR-8
[26] = toxicity toward immortalized ovarian surface epithelium – cell-based, plate reader, dry powder samples, cytotoxicity control for PAX8 inhibitor project, dose response (AID 743045); format: functional
[27] = OVCAR-3 cell viability loss – plate reader, dry powder samples, PAX8 inhibitor project, dose response (AID 743044); format: functional, cell-based
[28] = IGROV1 cell killing – plate reader, dry powder samples, PAX8 inhibitor project, dose response (AID 743043); format: functional, cell-based; details: IGROV-1
[29] = blockers of bursicon-stimulated LGR2 cAMP reporter – cell-based, HEK293, CRE-luciferase reporter, cherry pick, set 2, dose response (AID 743343); format: functional;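 further: transfected cells were stimulated with diluted bursicon conditioned medium after compound addition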
[30] = viability loss in HepG2 hepatoma cells – cell-based, ATP luminescence, cherry-pick, activator set 2, cytotoxicity control, dose response (AID 1053143); format: functional
[31] = Luminescence-based cell-based high throughput dose response assay to identify activators of the DAF-12 from the parasite S. stercoralis (ssDAF-12).; format: functional
[32] = toxicity toward HepG2 liver cells – cell-based, plate reader, cherry-pick, antagonist series, cytotoxicity control, dose response (AID 743416); format: functional
[33] = A549 cell cytotoxicity, dose response, cytotoxicity control, plate reader, cherry-pick, antagonist series (AID 743412); format: functional, cell-based
Protein skinhead-1 = biological target: T2, Protein skinhead-1 (Caenorhabditis elegans, UniProt P34707); format: functional
T2 sequence (P34707 whole entry): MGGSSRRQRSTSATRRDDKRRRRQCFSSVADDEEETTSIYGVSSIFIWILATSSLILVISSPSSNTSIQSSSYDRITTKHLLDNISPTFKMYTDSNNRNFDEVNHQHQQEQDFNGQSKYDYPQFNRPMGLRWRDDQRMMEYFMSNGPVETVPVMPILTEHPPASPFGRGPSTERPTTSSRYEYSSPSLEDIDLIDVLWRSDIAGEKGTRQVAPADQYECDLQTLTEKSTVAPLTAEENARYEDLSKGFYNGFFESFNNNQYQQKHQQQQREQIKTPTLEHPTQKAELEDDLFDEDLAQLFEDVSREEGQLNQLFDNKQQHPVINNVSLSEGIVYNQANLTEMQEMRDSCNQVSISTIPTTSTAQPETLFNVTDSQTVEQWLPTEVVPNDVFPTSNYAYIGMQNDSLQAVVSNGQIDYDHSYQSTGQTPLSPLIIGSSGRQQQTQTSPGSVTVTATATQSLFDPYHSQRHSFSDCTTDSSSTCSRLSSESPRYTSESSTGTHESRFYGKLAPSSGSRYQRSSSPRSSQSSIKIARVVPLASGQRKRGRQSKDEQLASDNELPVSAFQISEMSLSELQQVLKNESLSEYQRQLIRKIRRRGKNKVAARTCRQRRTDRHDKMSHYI

[34] = blockade of melanocortin 4 receptor signaling – cell-based, plate reader, cherry pick, counter-screen for LGR2 antagonist project, dose response (AID 743444); format: functional;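 further: transfected HEK 293 cells stimulated with alpha-MSH peptide; potency of inhibitors of the alpha-MSH evoked signal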

Chain of Caspase-6 (P55212 24-179 limits assumed): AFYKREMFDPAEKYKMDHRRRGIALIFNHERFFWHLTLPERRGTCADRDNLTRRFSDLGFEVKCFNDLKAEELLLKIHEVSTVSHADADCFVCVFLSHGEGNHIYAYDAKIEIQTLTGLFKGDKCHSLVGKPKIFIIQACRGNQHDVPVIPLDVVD
Chain of Caspase-6 (P55212 194-293 limits assumed): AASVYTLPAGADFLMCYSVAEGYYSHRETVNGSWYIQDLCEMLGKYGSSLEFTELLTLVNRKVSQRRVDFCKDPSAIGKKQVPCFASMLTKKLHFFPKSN

O=C(OC1CCOC1=O)c1ccc(Cl)c(S(=O)(=O)N2CCOCC2)c1 (stereo not drawn)
AC50 (Caspase-6): 13.5 µM (active)

O=C(CCCn1c(=S)[nH]c2cc3c(cc2c1=O)OCO3)N1CCN(c2ccc(Cl)cc2)CC1
IC50 (HEK293 [1]): > 20 µM (inactive)
AC50 [2]: 2.75 µM (active)
AC50 [3]: 44.3 µM (active)
IC50 (HEK293 [4]): 16.4 µM (active)
IC50 (HEK293 [5]): 8.75 µM (active)
EC50 (HEK293 [6]): 7.73 µM (active)
IC50 (HEK293 [7]): 6.5 µM (active)
AC50 [8]: 5.71 µM (active) and 5.84 µM (active)
IC50 (Estrogen receptor): 12.6 µM (active)
EC50 [9]: 3.83 µM (active)
AC50 [10]: 7.01 µM (active)
AC50 [11]: > 70 µM (inactive)
AC50 [12]: 5.45 µM (active)

COc1ccc(-n2c(/C=C/c3ccc4c(c3)OCO4)nc3ccccc3c2=O)cc1
AC50 [13]: > 30 µM (inactive)

CCOC(=O)COc1cccc2c(=O)n(CC(=O)NCc3ccccc3)ccc12
IC50 [14]: > 80 µM (inactive)
AC50 [15]: > 30 µM (inactive)

C[C@H]1CN([C@@H](C)CO)C(=O)c2cccc(NC(=O)c3ccncc3)c2O[C@@H]1CN(C)Cc1ccccc1
IC50 [16]: 35.1 µM (inactive)
IC50 [17]: 0.00942 µM (active)
AC50 [18]: 0.0123 µM (active)
IC50 [19]: 4.83 µM (inactive)
IC50 [20]: > 100 µM (inactive)
IC50 [21]: 84.4 µM (inactive)
AC50 [22]: 0.0123 µM (active)
IC50 [23]: 4.83 µM (inactive)
AC50 [24]: 0.08 µM (active)

Cc1ccc(S(=O)(=O)Nc2ccc3c(c2)C(=O)N([C@H](C)CO)C[C@H](C)[C@@H](CN(C)Cc2ccc(C(F)(F)F)cc2)OCCCC[C@H](C)O3)cc1
AC50 (Paired box protein Pax-8): 4.62 µM (active)
AC50 [25]: 16.6 µM (active)
AC50 [26]: 18.1 µM (active)
AC50 [27]: 10.3 µM (active)
AC50 [28]: 15 µM (active)

Cc1cc(-c2nc3cc(F)ccc3s2)ccc1N
AC50 [29]: 3.96 µM (active)
AC50 [30]: 0.55 µM (active)
IC50 [31]: > 67.6 µM (inactive)
AC50 [32]: 0.0824 µM (active)
AC50 [33]: 21.4 µM (active)
IC50 (Protein skinhead-1): 19.1 µM (active)
AC50 [34]: 3.8 µM (active)
